Drawing on patent publication US7338956B2, “Acylamino-substituted heteroaromatic compounds and their use as pharmaceuticals” (Sanofi-Aventis Deutschland GmbH, priority 2002, dated 2008), this text covers EC50 for 2 compounds.

Molecules are shown by their SMILES. pEC50: −log10 of the molar value. A value given as a limit tells only on which side of the number the result lay.

This test concerns eNOS promoter. Briefly: Determination of activation of eNOS transcription (eNOS promoter firefly luciferase reporter gene assay). The class given is cell-based. The following applies: human endothelial cell line stable transfected with eNOS promoter-luciferase construct; 18 h incubation; EC50 determined graphically; read-out: EC50 values of transcription induction ratio. The procedure: Activation of eNOS transcription was determined as described in detail in Li et al., “Activation of protein kinase C alpha and/or epsilon enhances transcription of the human endothelial nitric oxide synthase gene”, Mol. Pharmacol. 53 (1998) 630 (the content of which is incorporated herein by reference). Briefly, a 3.5 kB long fragment 5′ of the starting codon of the eNOS gene was cloned, sequenced and cloned in firefly luciferase expression plasmids to monitor activation of the eNOS promoter by reporter gene activity. A human endothelial cell line stable transfected and expressing this promoter-reporter construct was used for compound testing. Cells were incubated for 18 h with compounds.
All compounds were dissolved in sterile dimethyl sulfoxide (DMSO). A final concentration of 0.5% DMSO in complete medium was allowed. Induction of reporter gene expression in these cells was measured using a standard luciferase assay system (Promega, Cat. No E150) according to the manufacturer's instructions. Luciferase induction in cells incubated with compounds were compared to those incubated with solvent alone. The ratio of both activities (transcription induction ratio, TIR) was plotted as a function of compound concentration. […] EC50 values of transcription induction ratios as a function of compound concentration were determined graphically.
In general terms: Reporter assays use an easily measured gene product as a stand-in for the process of interest.

`O=C(Nc1nc2cc(Cl)ccc2s1)c1ccc(F)cc1` [Example 123, N-(5-Chlorobenzothiazol-2-yl)-4-fluorobenzamide]: the pEC50 is 4.92. The figure for `O=C(Nc1nc2cccc(Cl)c2s1)c1ccc(F)cc1` [Example 124, N-(7-Chlorobenzothiazol-2-yl)-4-fluorobenzamide] is more than 7.00.
